The text below walks through data of patent US4386099A, “Imidazolylphenyl amidines, pharmaceutical compositions containing same and use thereof” (Istituto de Angeli S.p.A., priority 1980, dated 1983).

Like-named read-outs stand apart in the source and are kept apart here.

The target of series [1] is T1, histamine H2-receptors (Cavia porcellus, UniProt P47747).
T1 construct: isolated guinea pig atria suspended in an organ bath; from tissue; host or cells: isolated guinea pig atria
The series can be described thus: In vitro inhibitory activity in histamine-induced tachycardia (positive chronotropic effect, isolated guinea pig atria). In kind it is cell-based. The settings on record: reduction of histamine (10^-6 g/ml) H2-evoked response, pH 7.4, 32° C. As for the experimental part:
The positive chronotropic effect has been investigated in isolated guinea pig atria suspended in an organ bath (50 ml) containing oxygenated (O2 : 95%, CO2 : 5%) Krebs-Henseleit solution (pH 7.4) maintained at 32° C. The myocardial preparation, loaded at 1 gm of isometric tension, is allowed to stabilize for 60 minutes and myocardial contractions are recorded through an isometric lever connected to a strain-gauge coupler. The instantaneous rate is monitored with a cardiotachymeter and a heat-writing pen recorder. After a control run, responses (tachycardia) to histamine (10^-6 g/ml) are obtained three times at 30 minute intervals. The test compounds are added to the bath to the desired final concentration, and the atria are again injected with histamine. The chronotropic response obtained in the presence of the antagonist is then compared to the control response to histamine, and the percent reduction of the histamine H2 -evoked response is calculated. […] 3 Smooth Muscle, Ed Daniel E. E. Patron, M., Plenum Press. New York (1975), and Ash and Schild, Br. J. Pharmacol. Chemother. 27 427-439 (1966).

Series [2] deals with T2, histamine H2-receptors (Rattus norvegicus, UniProt P25102).
T2 construct: from tissue; host or cells: stomach of the anaesthetised rat, in vivo
The series can be described thus: In vivo anti-secretory activity in histamine-induced gastric secretion (stomach perfused rat). The settings on record: iv. The protocol:
The preparation of the animals in general anaesthesia (urethane, 1 gm/kg i.p.) and constant temperature, is achieved by inserting and typing in place polyethyl tubes (PE 50) in the esophagus and in the pyloric-antral region. After the stomach is washed to remove residual food, continuous perfusion of the stomach is started with saline, 0.5 ml/min (37° C.), primed by a Jobling peristaltic pump. After 30 minutes of perfusion adaptation, the stomach perfusate is collected in 30 minute samples, and the samples are titrated for acid content, expressed as μEq of 1 N NaOH. As acid output becomes constant, as a control, intravenous perfusion of histamine (1 mg/kg.hr) is started and maintained throughout the experimental period. […] The ED50 values are then calculated by standard procedure.

For series [3] the following is noted: in vivo; cited from earlier work.
The test system of series [4] is H2-receptor. The settings on record: cited from earlier work; for Potency as H2-receptor antagonist: in vitro testing, vs cimetidine.
The conditions of series [5]: in vivo; cited from earlier work. This is another data set of the same source.
The subject of series [6] is H2-receptor. The settings on record: in man, vs burimamide; cited from earlier work.
For series [7] the following is noted: in vivo; cited from earlier work. This is another data set of the same source.
The next series relates to gastric acid secretion. The settings on record: in vivo testing, vs cimetidine; cited from earlier work.
The mark [8] stands for this setting: stomach perfused rat, histamine 1 mg/kg.hr i.v., expressed with regard to the compound as a base, read-out: ED50.

T2 sequence (P25102 whole entry): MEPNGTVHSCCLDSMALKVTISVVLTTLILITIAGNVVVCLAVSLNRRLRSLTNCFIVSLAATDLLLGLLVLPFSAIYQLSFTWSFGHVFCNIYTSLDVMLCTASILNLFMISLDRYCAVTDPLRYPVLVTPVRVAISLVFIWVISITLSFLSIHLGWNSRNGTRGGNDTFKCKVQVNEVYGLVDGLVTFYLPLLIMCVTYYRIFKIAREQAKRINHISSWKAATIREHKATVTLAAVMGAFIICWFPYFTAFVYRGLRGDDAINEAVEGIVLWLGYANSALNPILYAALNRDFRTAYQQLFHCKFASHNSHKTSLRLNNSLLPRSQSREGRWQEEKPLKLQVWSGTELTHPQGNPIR
T1 sequence (P47747 whole entry): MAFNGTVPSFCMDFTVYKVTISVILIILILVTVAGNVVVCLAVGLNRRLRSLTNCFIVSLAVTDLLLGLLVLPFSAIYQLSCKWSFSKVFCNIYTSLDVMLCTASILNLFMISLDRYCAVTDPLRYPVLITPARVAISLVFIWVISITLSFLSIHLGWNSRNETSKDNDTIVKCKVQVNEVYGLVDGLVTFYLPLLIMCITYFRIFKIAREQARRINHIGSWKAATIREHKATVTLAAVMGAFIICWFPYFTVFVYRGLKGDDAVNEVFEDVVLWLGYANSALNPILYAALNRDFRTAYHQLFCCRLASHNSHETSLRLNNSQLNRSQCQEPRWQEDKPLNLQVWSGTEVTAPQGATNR

In the case of `CC(C)NC=Nc1ccc(-c2c[nH]cn2)cc1` [B, N-Isopropyl-N'-[4-(imidazol-4-yl)-phenyl]-formamidine], the EC50 (commonly the concentration giving half of the maximal effect) on histamine H2-receptors [1] was 92 nM. The ED50 (commonly the dose that gives a 50% effect, or the effect in half of the subjects) on histamine H2-receptors [2] (setting [8]) amounted to 0.0129 mg/kg.
The compound `C=CCNC=Nc1ccc(-c2c[nH]cn2)cc1` [C, N-Allyl-N'-[4-(imidazol-4-yl)-phenyl]-formamidine] yielded an EC50 on histamine H2-receptors [1] of 93 nM. Besides, the ED50 on histamine H2-receptors [2] (setting [8]) was determined as 0.024 mg/kg.
Take `CN/C(=N/CCSCc1nc[nH]c1C)NC#N` [Cimetidine]: in series [3], the Toxic side effects result is “devoid of the toxic side effects of metiamide”. Further, the “Potency as H2-antagonist” value in the series with H2-receptor [4] (cimetidine vs metiamide) is on record as “as potent as metiamide”. Moreover, the Half-life result in series [5] is “relatively short”. This compound also displayed an ED50 at histamine H2-receptors [2] (rat) of 0.56 mg/kg.
`CCNC=Nc1ccc(-c2c[nH]cn2)cc1` [Compound A, N-Ethyl-N'-[4-(imidazol-4-yl)-phenyl]-formamidine] showed an EC50 on histamine H2-receptors [1] of 300 nM. In addition, the ED50 at histamine H2-receptors [2] (setting [8]) was 0.02 mg/kg.
On to `CCC(C)NC=Nc1ccc(-c2c[nH]cn2)cc1` (centres unmarked) [Compound E, N-sec-Butyl-N'-[4-(imidazol-4-yl)-phenyl]-formamidine], for which, at histamine H2-receptors [1], it took 150 nM to reach a half-maximal effect (EC50). Besides, the ED50 at histamine H2-receptors [2] (setting [8]) came to 0.0223 mg/kg.
Regarding `CCCNC=Nc1ccc(-c2c[nH]cn2)cc1` [D, N-n-Propyl-N'-[4-(imidazol-4-yl)-phenyl]-formamidine], the EC50 at histamine H2-receptors [1] worked out at 44 nM. Further, at histamine H2-receptors [2] (setting [8]), the ED50 was 0.0111 mg/kg.
`CC(C)CNC=Nc1ccc(-c2c[nH]cn2)cc1` [F, N-Isobutyl-N'-[4-(imidazol-4-yl)-phenyl]-formamidine] gave a concentration for a half-maximal effect (EC50) on histamine H2-receptors [1] of 65 nM. The ED50 at histamine H2-receptors [2] (setting [8]) was found to be 0.0259 mg/kg.
Compound `CC(C)=CCNC=Nc1ccc(-c2c[nH]cn2)cc1` [G] had an EC50 on histamine H2-receptors [1] of 74 nM. Moreover, the ED50 on histamine H2-receptors [2] (setting [8]) stood at 0.0559 mg/kg.
`C(=Nc1ccc(-c2c[nH]cn2)cc1)NCC1CC1` [H, N-Cyclopropylmethyl-N'-[4-(imidazol-4-yl)-phenyl]-formamidine] came in with an EC50 on histamine H2-receptors [1] of 48 nM. Besides, the ED50 on histamine H2-receptors [2] (setting [8]) came to 0.0235 mg/kg.
For the compound `C(=Nc1ccc(-c2c[nH]cn2)cc1)NC1CC1` [I, N-Cyclopropyl-N'-[4-(imidazol-4-yl)-phenyl]-formamidine], at histamine H2-receptors [1], a half-maximal response (EC50) required 379 nM. Moreover, at histamine H2-receptors [2] (setting [8]), the ED50 is 0.0366 mg/kg.
In the same order, the values of `C=CC(C)NC=Nc1ccc(-c2c[nH]cn2)cc1` (stereo not drawn) [J, N-(α-Methylallyl)-N'-[4-(imidazol-4-yl)-phenyl]-formamidine] are 168 nM and 0.042 mg/kg.
On the same counts, the results for `CC(C)(C)CNC=Nc1ccc(-c2c[nH]cn2)cc1` [K, N-Neopentyl-N'-[4-(imidazol-4-yl)-phenyl]-formamidine] are 121 nM and 0.03 mg/kg.
With `CC1(C)CC1CNC=Nc1ccc(-c2c[nH]cn2)cc1` (centres unmarked) [L, N-(2,2-Dimethyl)-cyclopropylmethyl-N'-[4-(imidazol-4-yl)-phenyl]-formamidine], it took 500 nM to reach a half-maximal effect on histamine H2-receptors [1] (EC50). For the same compound, the ED50 on histamine H2-receptors [2] (setting [8]) came to 0.034 mg/kg.
Consider `C/N=C(\S)NCCSCc1[nH]cnc1C` [Metiamide], for which the “Potency and oral activity” value in the series with H2-receptor [6] was “more potent and orally active in man than burimamide”. The Toxic side effects result in series [3] is “toxic side effects (agranulocytosis)”.
With `CNC(=S)NCCCCc1cnc[nH]1` [burimamide], in series [7], the Oral bioavailability entry is given as “seemed to lack sufficient oral bioavailability”.
On to `CNC(=C[N+](=O)[O-])NCCSCc1ccc(CN(C)C)o1` [ranitidine], for which the “Potency as H2-receptor antagonist” value in the series with H2-receptor [4] is reported as “more potent than cimetidine”. For the same compound, the “Potency as inhibitor of gastric acid secretion” value in the series on gastric acid secretion is reported as “more potent than cimetidine”.
Consider `CNC(=NCCSCc1csc(N=C(N)N)n1)NC#N` [tiotidine], for which, in the series on H2-receptor [4], the “Potency as H2-receptor antagonist” value is “more potent than cimetidine”. Further, the “Potency as inhibitor of gastric acid secretion” value in the series with gastric acid secretion is “more potent than cimetidine”.
